Molecular target: hKOPR (Homo sapiens, UniProt P41145)
Assay type: biochemical

Chain of hKOPR (P41145 whole entry): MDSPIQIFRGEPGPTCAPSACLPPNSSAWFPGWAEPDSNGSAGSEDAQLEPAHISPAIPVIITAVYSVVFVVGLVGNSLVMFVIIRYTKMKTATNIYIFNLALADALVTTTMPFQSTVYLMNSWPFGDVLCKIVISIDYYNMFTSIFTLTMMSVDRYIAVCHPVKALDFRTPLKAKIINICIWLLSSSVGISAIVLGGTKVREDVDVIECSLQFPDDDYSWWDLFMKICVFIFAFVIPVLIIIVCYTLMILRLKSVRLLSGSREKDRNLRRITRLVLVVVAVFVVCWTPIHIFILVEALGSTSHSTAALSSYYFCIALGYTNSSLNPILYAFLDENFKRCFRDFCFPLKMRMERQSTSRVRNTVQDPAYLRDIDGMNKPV

| Compound | KOPR agonism in the [35S]GTPγS functional assay (in words) | KOPR antagonism: effect on U50,488-induced [35S]GTPγS binding | reduction of [35S]GTPγS binding induced by U50,488 |
| --- | --- | --- | --- |
| COC(=O)[C@@H]1C[C@H](OC(C)=O)C(=O)[C@H]2[C@@]1(C)CC[C@H]1C(=O)O[C@H](COC(C)=O)C[C@]21C [Compound 11] | weak KOPR agonist | – | – |
| COC(=O)[C@@H]1C[C@H](OC(C)=O)C(=O)[C@H]2[C@@]1(C)CC[C@H]1C(=O)O[C@H](c3ccoc3Br)C[C@]21C [Compound 2, 16-bromosalvinorin A] | highly potent KOPR agonist | – | – |
| COC(=O)[C@@H]1C[C@H](OC(C)=O)C(=O)[C@H]2[C@@]1(C)CC[C@H]1C(=O)O[C@@H](c3ccoc3)C[C@]21C [Compound 6, 12-epi-Salvinorin A] | partial agonist effects | partially blocked the effect of U50,488 | significantly reduced |
| COC(=O)[C@@H]1C[C@H](OC(C)=O)C(=O)[C@H]2[C@@]1(C)CC[C@H]1C(=O)O[C@H](C(=O)O)C[C@]21C [Compound 7] | weak agonist | – | – |
